SMILES strings stand for the structures.

For the assay, the target named is T1, human chemokine receptor 2 isoform B (Homo sapiens, UniProt P41597).
T1 construct: host or cells: CHOK1-CCR2B-A5 (CHO-K1)
T1 sequence (P41597 1-360 isoform P41597-2): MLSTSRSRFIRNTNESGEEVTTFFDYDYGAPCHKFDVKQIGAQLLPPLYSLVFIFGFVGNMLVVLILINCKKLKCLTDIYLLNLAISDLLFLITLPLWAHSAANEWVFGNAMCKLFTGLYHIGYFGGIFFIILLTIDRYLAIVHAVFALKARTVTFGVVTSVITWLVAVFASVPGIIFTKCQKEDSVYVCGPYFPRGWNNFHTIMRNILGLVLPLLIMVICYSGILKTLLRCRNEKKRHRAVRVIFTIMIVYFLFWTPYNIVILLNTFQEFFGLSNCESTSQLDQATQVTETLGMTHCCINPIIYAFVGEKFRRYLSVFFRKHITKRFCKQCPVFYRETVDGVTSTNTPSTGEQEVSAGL
Description: Calcium mobilization assay (CHOK1-CCR2B-A5 cells, FLIPR, MCP-1 stimulated). The class given is cell-based. The following applies: Ca mobilisation assay for CCR2, antagonist activity, 50% inhibition of specific calcium increases after 20 nM MCP-1. Here is the method:
CHOK1-CCR2B-A5 cells (from Euroscreen) stably overexpressing the human chemokine receptor 2 isoform B were cultured in Nutrient Hams F12 medium supplemented with 5% FBS, 100 U/ml penicillin, 100 μg/ml streptomycin, 400 μg/ml G418 and 5 μg/ml puromycin.
For the assay cells were grown overnight in 384-well black clear flat bottom polystyrene plates (Costar) at 37° C. at 5% CO2. After washing with DMEM, 20 mM Hepes, 2.5 mM probenecid, 0.1% BSA (DMEM assay buffer) cells were loaded with 4 μM Fluo-4 in the same DMEM assay buffer for 2 hours at 30° C. Excess dye was removed and cells were washed with DMEM assay buffer. 384-well compound plates were prepared with DMEM assay buffer/0.5% DMSO with or without various concentrations of test compounds. Usually compounds were tested for agonist and antagonist activity.
Test compounds were added to the assay plate and agonist activity was monitored as fluorescence for 80 seconds with a FLIPR (488 nm excitation; 510-570 nm emission; Molecular Devices). After 20-30 min. of incubation at 30° C., 20 nM MCP-1 (R&D; Roche) was added and fluorescence was monitored again for 80 seconds. Increases in intracellular calcium are reported as maximum fluorescence after agonist exposure minus basal fluorescence before exposure. Antagonist activity is indicated as inhibitor concentration required for 50% inhibition of specific calcium increases.
For `C[C@H]1C(=O)N2[C@@H](CCN3CCC(F)(F)CC3)COC[C@H]2CN1C(=O)Nc1ccc(C(F)(F)F)c(Cl)c1` [Example 57, (4S,7S,9aR)—N-(3-chloro-4-(trifluoromethyl)phenyl)-4-(2-(4,4-difluoropiperidin-1-yl)ethyl)-7-methyl-6-oxohexahydropyrazino[2,1-c][1,4]oxazine-8(1H)-carboxamide], the IC50 (as a rule, the concentration at which inhibition is half-maximal) was 119 nM.

As to `C[C@H]1C(=O)N2[C@@H](CCCN3CCC4(CC4)[C@H](O)C3)CO[C@H]2CN1C(=O)Nc1cccc(Cl)c1` [Example 19, (3S,6S,8aS)-3-[3-((S)-4-Hydroxy-6-aza-spiro[2.5]oct-6-yl)-propyl]-6-methyl-5-oxo-hexahydro-oxazolo[3,2-a]pyrazine-7-carboxylic acid (3-chloro-phenyl)-amide], the half-maximal inhibitory concentration (IC50) was determined as 33.4 nM.

Turning to `C[C@H]1C(=O)N2C(CN1C(=O)Nc1cccc(Cl)c1)OC[C@@H]2CCCN1CCC2(CC2)[C@H](O)C1` (stereo partly drawn) [Example 15, (3S,6S)-3-[3-((S)-4-Hydroxy-6-aza-spiro[2.5]oct-6-yl)-propyl]-6-methyl-5-oxo-hexahydro-oxazolo[3,2-a]pyrazine-7-carboxylic acid (3-chloro-phenyl)-amide], the IC50 was determined as 32.8 nM.

Regarding `C[C@H]1C(=O)N2[C@@H](CCC(=O)N3CCC4(CC4)[C@H](O)C3)CCC[C@H]2CN1C(=O)Nc1ccc(C(F)(F)F)c(Cl)c1` [Example 64, (3S,6R,9aS)-6-[3-((S)-4-Hydroxy-6-aza-spiro[2.5]oct-6-yl)-3-oxo-propyl]-3-methyl-4-oxo-octahydro-pyrido[1,2-a]pyrazine-2-carboxylic acid (3-chloro-4-trifluoromethyl-phenyl)-amide], the half-inhibitory concentration (IC50) was 14.3 nM.

In the case of `C[C@H]1C(=O)N2[C@@H](CCC(=O)N3CCC4(CC4)[C@H](O)C3)CO[C@@H]2CN1C(=O)Nc1ccc(Cl)c(Cl)c1` [Example 35, (3S,6S,8aR)-3-[3-((S)-4-Hydroxy-6-aza-spiro[2.5]oct-6-yl)-3-oxo-propyl]-6-methyl-5-oxo-hexahydro-oxazolo[3,2-a]pyrazine-7-carboxylic acid (3,4-dichloro-phenyl)-amide], the half-maximal inhibitory concentration (IC50) was 5.7 nM.

Regarding `C[C@H]1C(=O)N2[C@@H](CCCN3CCC4(CC4)C(F)(F)C3)COC[C@H]2CN1C(=O)Nc1ccc(C(F)(F)F)c(Cl)c1` [Example 61, (4S,7S,9aR)—N-(3-chloro-4-(trifluoromethyl)phenyl)-4-(3-(4,4-difluoro-6-azaspiro[2.5]octan-6-yl)propyl)-7-methyl-6-oxohexahydropyrazino[2,1-c][1,4]oxazine-8(1H)-carboxamide], the IC50 was determined as 34.1 nM.

For `C[C@H]1C(=O)N2[C@@H](CCCN3CCC4(CC4)[C@H](O)C3)CO[C@@H]2CN1C(=O)Nc1ccc(Cl)c(Cl)c1` [Example 18, (3S,6S,8aR)-3-[3-((S)-4-hydroxy-6-aza-spiro[2.5]oct-6-yl)-propyl]-6-methyl-5-oxo-hexahydro-oxazolo[3,2-a]pyrazine-7-carboxylic acid (3,4-dichloro-phenyl)-amide], the IC50 came out at 10.2 nM.

`C[C@H]1C(=O)N2C(CN1C(=O)Nc1cccc(Cl)c1)OC[C@@H]2CCN1CCC2(CC2)[C@H](O)C1` (stereo partly drawn) [Example 3, (3S,6S)-3-[2-((S)-4-Hydroxy-6-aza-spiro[2.5]oct-6-yl)-ethyl]-6-methyl-5-oxo-hexahydro-oxazolo[3,2-a]pyrazine-7-carboxylic acid (3-chloro-phenyl)-amide]: the IC50 amounted to 60.4 nM.

Consider `C[C@H]1C(=O)N2[C@@H](CCN3CCC4(CC4)[C@H](O)C3)CO[C@H]2CN1C(=O)Nc1ccc(F)c(Cl)c1` [Example 6, (3S,6S,8aS)-3-[2-((S)-4-Hydroxy-6-aza-spiro[2.5]oct-6-yl)-ethyl]-6-methyl-5-oxo-hexahydro-oxazolo[3,2-a]pyrazine-7-carboxylic acid (3-chloro-4-fluoro-phenyl)-amide], for which the IC50 was determined as 72 nM.

For `C[C@H]1C(=O)N2[C@@H](CCC(=O)N3CCC4(CC4)[C@H](O)C3)COC[C@H]2CN1C(=O)Nc1ccc(C(F)(F)F)c(Cl)c1` [Example 52, (4S,7S,9aR)—N-(3-chloro-4-(trifluoromethyl)phenyl)-4-(3-((S)-4-hydroxy-6-azaspiro[2.5]octan-6-yl)-3-oxopropyl)-7-methyl-6-oxohexahydropyrazino[2,1-c][1,4]oxazine-8(1H)-carboxamide], the concentration for half-maximal inhibition (IC50) worked out at 14.7 nM.

Regarding `C[C@H]1C(=O)N2[C@@H](CCC(=O)N3CCC4(CC4)[C@H](O)C3)COC[C@H]2CN1C(=O)Nc1ccc(Cl)c(Cl)c1` [Example 51, (4S,7S,9aR)-4-[3-((S)-4-Hydroxy-6-aza-spiro[2.5]oct-6-yl)-3-oxo-propyl]-7-methyl-6-oxo-hexahydro-pyrazino[2,1-c][1,4]oxazine-8-carboxylic acid (3,4-dichloro-phenyl)-amide], the IC50 was determined as 86.9 nM.

On to `C[C@H]1C(=O)N2[C@@H](CCN3CCS(=O)(=O)CC3)COC[C@H]2CN1C(=O)Nc1ccc(C(F)(F)F)c(Cl)c1` [Example 59, (4S,7S,9aR)-4-[2-(1,1-Dioxo-6-thiomorpholin-4-yl)-ethyl]-7-methyl-6-oxo-hexahydro-pyrazino[2,1-c][1,4]oxazine-8-carboxylic acid (3-chloro-4-trifluoromethyl-phenyl)-amide], for which the concentration for half-maximal inhibition (IC50) turned out to be 189 nM.

Regarding `C[C@H]1C(=O)N2[C@@H](CCCN3CCCC(F)(F)C3)CC[C@H]2CN1C(=O)Nc1ccc(Cl)c(Cl)c1` [Example 47, (3S,6S,8aS)-6-[3-(3,3-Difluoro-piperidin-1-yl)-propyl]-3-methyl-4-oxo-hexahydro-pyrrolo[1,2-a]pyrazine-2-carboxylic acid (3,4-dichloro-phenyl)-amide], the IC50 came out at 67.4 nM.

For the molecule `C[C@H]1C(=O)N2[C@@H](CCC(=O)N3CCC4(CC4)[C@H](O)C3)CO[C@H]2CN1C(=O)Nc1ccc(Cl)c(Cl)c1` [Example 36, (3S,6S,8aS)-3-[3-((S)-4-Hydroxy-6-aza-spiro[2.5]oct-6-yl)-3-oxo-propyl]-6-methyl-5-oxo-hexahydro-oxazolo[3,2-a]pyrazine-7-carboxylic acid (3,4-dichloro-phenyl)-amide], the half-inhibitory concentration (IC50) was determined as 9.3 nM.

Turning to `C[C@H]1C(=O)N2[C@@H](CCC(=O)N3CCC4(CC4)[C@H](O)C3)CO[C@@H]2CN1C(=O)/C=C/c1ccc(F)c(Cl)c1` [Example 26, (3S,6S,8aR)-7-[(E)-3-(3-Chloro-4-fluoro-phenyl)-acryloyl]-3-[3-((S)-4-hydroxy-6-aza-spiro[2.5]oct-6-yl)-3-oxo-propyl]-6-methyl-hexahydro-oxazolo[3,2-a]pyrazin-5-one], the IC50 was 61.8 nM.

On to `C[C@H]1C(=O)N2[C@@H](CCN3CCC4(CC4)[C@H](O)C3)CO[C@H]2CN1C(=O)Nc1ccc(Cl)c(Cl)c1` [Example 1, (3S,6S,8aS)-3-[2-((S)-4-Hydroxy-6-aza-spiro[2.5]oct-6-yl)-ethyl]-6-methyl-5-oxo-hexahydro-oxazolo[3,2-a]pyrazine-7-carboxylic acid (3,4-dichloro-phenyl)-amide], for which the 50% inhibitory concentration (IC50) is 5.8 nM.

Consider `C[C@H]1C(=O)N2[C@H](CCN3CCC4(CC4)[C@H](O)C3)CCC[C@@H]2CN1C(=O)Nc1ccc(Cl)c(Cl)c1` (racemic) [Example 38, (3S,9aR)-6-[2-((S)-4-Hydroxy-6-aza-spiro[2.5]oct-6-yl)-ethyl]-3-methyl-4-oxo-octahydro-pyrido[1,2-a]pyrazine-2-carboxylic acid (3,4-dichloro-phenyl)-amide], for which the IC50 worked out at 8.8 nM.

In the case of `C[C@H]1C(=O)N2C(CN1C(=O)Nc1ccc(Cl)c(Cl)c1)OC[C@@H]2CCC(=O)N1CCC2(CC2)[C@H](O)C1` (stereo partly drawn) [Example 23, (3S,6S)-3-[3-((S)-4-Hydroxy-6-aza-spiro[2.5]oct-6-yl)-3-oxo-propyl]-6-methyl-5-oxo-hexahydro-oxazolo[3,2-a]pyrazine-7-carboxylic acid (3,4-dichloro-phenyl)-amide], the IC50 stood at 14.4 nM.

`C[C@H]1C(=O)N2[C@@H](CCN3CCC4(CC4)[C@H](O)C3)CCC[C@H]2CN1C(=O)Nc1cccc(Cl)c1` [Example 66, (3S,6R,9aS)-6-[2-((S)-4-Hydroxy-6-aza-spiro[2.5]oct-6-yl)-ethyl]-3-methyl-4-oxo-octahydro-pyrido[1,2-a]pyrazine-2-carboxylic acid (3-chloro-phenyl)-amide]: the IC50 came out at 3 nM.

For `C[C@H]1C(=O)N2[C@@H](CCCN3CC(F)(F)C(F)(F)C3)CC[C@H]2CN1C(=O)Nc1ccc(Cl)c(Cl)c1` [Example 44, (3S,6S,8aS)-3-Methyl-4-oxo-6-[3-(3,3,4,4-tetrafluoro-pyrrolidin-1-yl)-propyl]-hexahydro-pyrrolo[1,2-a]pyrazine-2-carboxylic acid (3,4-dichloro-phenyl)-amide], the IC50 is 473 nM.

(Values after patent US8471004B2, “Bicyclic compounds” (Hoffman-La Roche Inc., priority 2009, dated 2013).)
